In article PMC5696480, “Azole sensitivity in Leptosphaeria pathogens of oilseed rape: the role of lanosterol 14α-demethylase” (Scientific Reports, 2017):

Tests used:
Experiment in all cases: growth inhibition of complemented yeast YUG37::LbCYP51B, absorbance at […] nm
Assay type in all cases: cell-based, Plenodomus biglobosus (Leptosphaeria biglobosa)
Conditions in all cases: whole-cell growth; SD GAL + RAF with doxycycline (native CYP51 repressed), 30 °C, 6 days; SD of two biological replicates
[1] = tested on: T1, LbCYP51B
T1 construct: gene CYP51B; protein identical in all 8 isolates; gene 1642 bp with one 58 bp intron

[2] = tested on: T1, LbCYP51B; remark: listed apart in the source
[3] = tested on: T1, LbCYP51B; remark: listed apart in the source

With `C[Si](Cn1cncn1)(c1ccc(F)cc1)c1ccc(F)cc1` [flusilazole] as the compound, how does the Flusilazole [1] read?
The Flusilazole was 0.032 (0.0056) µg ml^−1.

How did the Prothioconazole-desthio [2] turn out when `OC(Cc1ccccc1Cl)(Cn1cncn1)C1(Cl)CC1` (stereo not drawn) [prothioconazole-desthio] was run?
The Prothioconazole-desthio was 0.0004 (0.0002) µg ml^−1.

Which Tebuconazole [3] does the source give for `CC(C)(C)C(O)(CCc1ccc(Cl)cc1)Cn1cncn1` (stereo not drawn) [tebuconazole] here?
Its Tebuconazole is 0.0062 (0.0005) µg ml^−1.
